# Results from the supplement of paper PMC10307832.
# Compound: CC1=C(N=C(N=C1N)[C@H](CC(=O)N)NC[C@@H](C(=O)N)N)C(=O)N[C@@H]([C@H](C2=CN=CN2)OC3C(C(C(C(O3)CO)O)O)OC4C(C(C(C(O4)CO)O)OC(=O)N)O)C(=O)N[C@H](C)[C@H]([C@H](C)C(=O)N[C@@H]([C@@H](C)O)C(=O)NCCC5=NC(=CS5)C6=NC(=CS6)C(=O)NCCC[S+](C)C)O [Bleomycin] + COc1cccc2cc(-c3nc([C@H]4CC[C@H](C(=O)O)CC4)n4ncnc(N)c34)[nH]c12 [OSI-027] (partner 0.5 µM)
# Test: relative viability (nuclei count vs DMSO), 5 days (fraction); higher = more cells survive
# Conditions: first compound 0.01 µM; main component drawn
# Procedure, shortened: (§1)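 Lung cancer cell lines in 1536-well plates were dosed by pin tool the day after seeding, either with one drug alone or with a fixed anchor-drug dose plus five library-drug doses (not always all listed) in √10 steps. After 5 days, cells were fixed and their nuclei stained in one step (final 0.05% Triton X-100, 1% formaldehyde, 1 ug/ml Hoechst), then counted on 4× images. Relative viability is the nuclei count in treated wells divided by that in vehicle wells. Values are medians of duplicate plates.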
row,Cell Line,relative viability
1,LCLC-103H,0.39
2,NCI-H596,0.48
3,NCI-H2228,0.473
4,EMC-BAC-2,0.298
5,NCI-H2085,0.832
6,HCC-366,0.675
7,NCI-H1666,0.678
8,NCI-H647,0.195
9,LK-2,0.192
10,NCI-H2126,0.644
11,NCI-H2342,0.676
12,SK-MES-1,0.506
13,H3255,0.524
14,COR-L23,0.566
15,COR-L 105,0.591
16,LOU-NH91,0.667
17,ChaGo-K-1,0.46
18,NCI-H2170,0.598
19,NCI-H1648,0.274
20,NCI-H1563,0.67

# Same assay, conditions: first compound 0.03162 µM; main component drawn
row,Cell Line,relative viability
1,NCI-H522,0.619
2,NCI-H1623,0.432
3,NCI-H838,0.269
4,NCI-H1650,0.332
5,NCI-H1993,0.483
6,NCI-H2087,0.515
7,PC-14,0.435
8,LCLC-103H,0.451
9,NCI-H596,0.561
10,NCI-H2228,0.467
11,EMC-BAC-2,0.326
12,NCI-H2085,0.761
13,HCC-366,0.643
14,NCI-H1666,0.671
15,NCI-H647,0.184
16,LK-2,0.202
17,NCI-H2126,0.774
18,NCI-H2342,0.634
19,SK-MES-1,0.588
20,H3255,0.6
21,COR-L23,0.696
22,COR-L 105,0.567
23,LOU-NH91,0.564
24,ChaGo-K-1,0.536
25,NCI-H2170,0.764
26,NCI-H1563,0.806

# Same assay, conditions: first compound 0.1 µM; main component drawn
row,Cell Line,relative viability
1,NCI-H522,0.593
2,NCI-H1623,0.464
3,NCI-H838,0.186
4,NCI-H1650,0.227
5,NCI-H1993,0.513
6,NCI-H2087,0.379
7,PC-14,0.114
8,LCLC-103H,0.468
9,NCI-H596,0.512
10,NCI-H2228,0.534
11,EMC-BAC-2,0.304
12,NCI-H2085,0.574
13,HCC-366,0.471
14,NCI-H1666,0.636
15,NCI-H647,0.184
16,LK-2,0.177
17,NCI-H2126,0.738
18,NCI-H2342,0.598
19,SK-MES-1,0.57
20,H3255,0.504
21,COR-L23,0.415
22,COR-L 105,0.639
23,LOU-NH91,0.555
24,ChaGo-K-1,0.5
25,NCI-H2170,0.767
26,NCI-H1648,0.257
27,NCI-H1563,0.657

# Same assay, conditions: first compound 0.3162 µM; main component drawn
row,Cell Line,relative viability
1,NCI-H522,0.419
2,NCI-H1623,0.363
3,NCI-H838,0.173
4,NCI-H1650,0.171
5,NCI-H1993,0.535
6,NCI-H2087,0.123
7,PC-14,0.0634
8,LCLC-103H,0.34
9,NCI-H596,0.304
10,NCI-H2228,0.264
11,EMC-BAC-2,0.257
12,NCI-H2085,0.317
13,HCC-366,0.122
14,NCI-H1666,0.515
15,NCI-H647,0.0871
16,LK-2,0.167
17,NCI-H2126,0.522
18,NCI-H2342,0.507
19,SK-MES-1,0.262
20,H3255,0.53
21,COR-L23,0.139
22,COR-L 105,0.339
23,LOU-NH91,0.503
24,ChaGo-K-1,0.302
25,NCI-H2170,0.52
26,NCI-H1648,0.246
27,NCI-H1563,0.577

# Same assay, conditions: first compound 1 µM; main component drawn
row,Cell Line,relative viability
1,NCI-H522,0.432
2,NCI-H1623,0.322
3,NCI-H838,0.174
4,NCI-H1650,0.151
5,NCI-H1993,0.422
6,NCI-H2087,0.126
7,PC-14,0.0557
8,LCLC-103H,0.219
9,NCI-H596,0.278
10,NCI-H2228,0.164
11,EMC-BAC-2,0.159
12,NCI-H2085,0.44
13,HCC-366,0.119
14,NCI-H1666,0.408
15,NCI-H647,0.0587
16,LK-2,0.162
17,NCI-H2126,0.585
18,NCI-H2342,0.511
19,SK-MES-1,0.16
20,H3255,0.429
21,COR-L23,0.122
22,COR-L 105,0.377
23,LOU-NH91,0.306
24,ChaGo-K-1,0.179
25,NCI-H2170,0.395
26,NCI-H1648,0.274
27,NCI-H1563,0.581

# Compound: CC1=C(N=C(N=C1N)[C@H](CC(=O)N)NC[C@@H](C(=O)N)N)C(=O)N[C@@H]([C@H](C2=CN=CN2)OC3C(C(C(C(O3)CO)O)O)OC4C(C(C(C(O4)CO)O)OC(=O)N)O)C(=O)N[C@H](C)[C@H]([C@H](C)C(=O)N[C@@H]([C@@H](C)O)C(=O)NCCC5=NC(=CS5)C6=NC(=CS6)C(=O)NCCC[S+](C)C)O [Bleomycin] + N=C(N)NC(=N)NCCc1ccccc1 [Phenformin] (partner 250 µM)
# Test: as above
# Conditions: first compound 0.01 µM; main component drawn
# Procedure, shortened: as §1
row,Cell Line,relative viability
1,NCI-H522,0.561
2,NCI-H1623,0.548
3,NCI-H838,0.381
4,NCI-H1650,0.293
5,NCI-H1993,0.501
6,PC-14,0.433
7,LCLC-103H,0.329
8,NCI-H596,0.673
9,NCI-H2228,0.314
10,EMC-BAC-2,0.46
11,NCI-H2085,0.599
12,HCC-366,0.455
13,NCI-H1666,0.528
14,NCI-H647,0.209
15,LK-2,0.289
16,NCI-H2126,0.55
17,NCI-H2342,0.552
18,SK-MES-1,0.58
19,H3255,0.35
20,COR-L23,0.316
21,COR-L 105,0.49
22,LOU-NH91,0.686
23,ChaGo-K-1,0.383
24,NCI-H2170,0.415
25,A549,0.143
26,NCI-H1563,0.581

# Same assay, conditions: first compound 0.03162 µM; main component drawn
row,Cell Line,relative viability
1,NCI-H522,0.585
2,NCI-H1623,0.631
3,NCI-H838,0.297
4,NCI-H1650,0.239
5,NCI-H1993,0.512
6,NCI-H2087,0.465
7,PC-14,0.341
8,LCLC-103H,0.333
9,NCI-H596,0.728
10,NCI-H2228,0.312
11,EMC-BAC-2,0.468
12,NCI-H2085,0.595
13,HCC-366,0.618
14,NCI-H1666,0.516
15,NCI-H647,0.207
16,LK-2,0.281
17,NCI-H2126,0.536
18,NCI-H2342,0.707
19,SK-MES-1,0.617
20,H3255,0.372
21,COR-L23,0.292
22,COR-L 105,0.394
23,LOU-NH91,0.488
24,ChaGo-K-1,0.39
25,NCI-H2170,0.426
26,A549,0.139
27,NCI-H1563,0.658

# Same assay, conditions: first compound 0.1 µM; main component drawn
row,Cell Line,relative viability
1,NCI-H522,0.493
2,NCI-H1623,0.513
3,NCI-H838,0.185
4,NCI-H1650,0.206
5,NCI-H1993,0.478
6,NCI-H2087,0.379
7,PC-14,0.197
8,LCLC-103H,0.294
9,NCI-H596,0.635
10,NCI-H2228,0.301
11,EMC-BAC-2,0.391
12,NCI-H2085,0.55
13,HCC-366,0.423
14,NCI-H1666,0.494
15,NCI-H647,0.148
16,LK-2,0.304
17,NCI-H2126,0.559
18,NCI-H2342,0.626
19,SK-MES-1,0.546
20,H3255,0.367
21,COR-L23,0.219
22,COR-L 105,0.399
23,LOU-NH91,0.515
24,ChaGo-K-1,0.384
25,NCI-H2170,0.422
26,A549,0.444
27,NCI-H1563,0.64

# Same assay, conditions: first compound 0.3162 µM; main component drawn
row,Cell Line,relative viability
1,NCI-H522,0.363
2,NCI-H1623,0.442
3,NCI-H838,0.188
4,NCI-H1650,0.114
5,NCI-H1993,0.419
6,NCI-H2087,0.184
7,PC-14,0.0557
8,LCLC-103H,0.274
9,NCI-H596,0.343
10,NCI-H2228,0.185
11,EMC-BAC-2,0.275
12,NCI-H2085,0.329
13,HCC-366,0.159
14,NCI-H1666,0.344
15,NCI-H647,0.078
16,LK-2,0.23
17,NCI-H2126,0.349
18,NCI-H2342,0.441
19,SK-MES-1,0.217
20,H3255,0.301
21,COR-L23,0.123
22,COR-L 105,0.315
23,LOU-NH91,0.383
24,ChaGo-K-1,0.297
25,NCI-H2170,0.374
26,A549,0.0518
27,NCI-H1563,0.551

# Same assay, conditions: first compound 1 µM; main component drawn
row,Cell Line,relative viability
1,NCI-H522,0.416
2,NCI-H1623,0.333
3,NCI-H838,0.153
4,NCI-H1650,0.149
5,NCI-H1993,0.44
6,NCI-H2087,0.162
7,PC-14,0.0309
8,LCLC-103H,0.223
9,NCI-H596,0.366
10,NCI-H2228,0.147
11,EMC-BAC-2,0.217
12,NCI-H2085,0.306
13,HCC-366,0.0675
14,NCI-H1666,0.302
15,NCI-H647,0.0537
16,LK-2,0.16
17,NCI-H2126,0.303
18,NCI-H2342,0.528
19,SK-MES-1,0.174
20,H3255,0.301
21,COR-L23,0.123
22,COR-L 105,0.35
23,LOU-NH91,0.343
24,ChaGo-K-1,0.217
25,NCI-H2170,0.338
26,A549,0.0392
27,NCI-H1563,0.511
